Here are results for eight compounds from publication PMC3267170, “Pharmacological Modulation of Diacylglycerol-Sensitive TRPC3/6/7 Channels” (Current Pharmaceutical Biotechnology, 2011).

Where two headings read alike, the source gives them in different places.

Assay [1] concerns the target T1, TRPC6 (Homo sapiens, UniProt Q9Y210).
T1 construct: expressed in transfected cells
T1 sequence (Q9Y210 1-931): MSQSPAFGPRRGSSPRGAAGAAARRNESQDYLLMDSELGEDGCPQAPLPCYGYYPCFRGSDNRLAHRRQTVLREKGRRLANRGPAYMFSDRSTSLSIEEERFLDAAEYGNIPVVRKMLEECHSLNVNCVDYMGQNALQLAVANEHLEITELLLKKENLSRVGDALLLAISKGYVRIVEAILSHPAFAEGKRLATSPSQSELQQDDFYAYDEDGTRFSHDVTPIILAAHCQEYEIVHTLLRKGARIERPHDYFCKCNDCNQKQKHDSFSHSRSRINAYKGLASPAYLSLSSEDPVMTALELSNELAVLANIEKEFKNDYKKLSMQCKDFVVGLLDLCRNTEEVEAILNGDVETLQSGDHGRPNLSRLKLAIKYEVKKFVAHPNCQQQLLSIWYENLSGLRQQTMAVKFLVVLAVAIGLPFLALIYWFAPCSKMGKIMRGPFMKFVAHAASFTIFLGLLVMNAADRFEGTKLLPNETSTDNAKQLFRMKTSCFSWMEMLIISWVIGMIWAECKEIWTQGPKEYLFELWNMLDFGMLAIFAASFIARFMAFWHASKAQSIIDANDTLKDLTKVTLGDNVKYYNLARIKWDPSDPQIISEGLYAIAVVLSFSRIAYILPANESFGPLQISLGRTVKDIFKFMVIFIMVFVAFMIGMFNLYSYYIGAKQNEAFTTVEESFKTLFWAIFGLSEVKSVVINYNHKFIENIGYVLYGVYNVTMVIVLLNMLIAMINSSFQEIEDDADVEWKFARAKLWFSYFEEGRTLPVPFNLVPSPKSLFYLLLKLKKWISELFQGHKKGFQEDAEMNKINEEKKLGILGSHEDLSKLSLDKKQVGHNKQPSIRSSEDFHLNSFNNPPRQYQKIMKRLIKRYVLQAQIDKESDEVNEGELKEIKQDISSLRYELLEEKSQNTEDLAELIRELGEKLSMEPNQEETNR
In words: FLIPR calcium entry in TRPC6-expressing cells stimulated by hyperforin. The assay is classed as cell-based. Particulars: read-out: IC50, hyperforin-induced TRPC6-mediated calcium entry (Fig. 3). The method, then: (§1) Using this approach, we tested several other structurally related compounds to get a first view on the structure-function relationships of TRPC6.
A) The chemical structures of the tested compound is shown. […] Calcium entry was measured using FLIPR^Tetra and data analysed as described in Jörs et al.. The data were calculated from one experiment of at least three experiments performed in quadruplicates per concentration and TRP channel.
(§2) Calcium entry was measured using FLIPR^Tetra and data analysed as described in Jörs et al.. The data were calculated from one experiment of at least three experiments performed in quadruplicates per concentration and TRP channel.

Assay [2] deals with receptor-mediated calcium entry. Also noted: method as in PMID 2173565. To be noted: platelets, neutrophils and endothelial cells; read-out: IC50, block of ADP-induced calcium entry; cited from earlier work.
Assay [3] deals with TRPC3. Set-up: method as in PMID 12700192. Particulars: 100 µM; human myometrial cells; cited from earlier work.
Assay [4] has as its target T1, TRPC6. Set-up: method as in earlier work. Particulars: 100 µM SKF-96365; ref 12 (Boulay et al.); cited from earlier work.
The next assay deals with T2, TRPV4 (Homo sapiens, UniProt Q9HBA0).
T2 construct: expressed in transfected cells
In words: FLIPR calcium entry in TRPV4-expressing cells stimulated by 4α-phorbol-didecanoate. The assay is classed as cell-based. Particulars: fluo-4-loaded cells, 4α-phorbol-didecanoate (5 µM), FLIPR Tetra; read-out: IC50 to block TRPV4. The method, then:
as §1, §2

Another assay deals with T3, TRPM3 (Homo sapiens, UniProt Q9HCF6).
T3 construct: expressed in transfected cells
In words: FLIPR calcium entry in TRPM3-expressing cells stimulated by pregnenolone sulphate. Particulars: fluo-4-loaded cells, pregnenolone sulphate (35 µM), FLIPR Tetra; read-out: IC50 to block TRPM3. The assay is classed as cell-based. The method, then: as §1, §2

A further assay has as its target T4, Drosophila TRPγ (Drosophila melanogaster, UniProt Q9VJJ7).
T4 construct: expressed in transfected cells
T4 sequence (Q9VJJ7 1-1128): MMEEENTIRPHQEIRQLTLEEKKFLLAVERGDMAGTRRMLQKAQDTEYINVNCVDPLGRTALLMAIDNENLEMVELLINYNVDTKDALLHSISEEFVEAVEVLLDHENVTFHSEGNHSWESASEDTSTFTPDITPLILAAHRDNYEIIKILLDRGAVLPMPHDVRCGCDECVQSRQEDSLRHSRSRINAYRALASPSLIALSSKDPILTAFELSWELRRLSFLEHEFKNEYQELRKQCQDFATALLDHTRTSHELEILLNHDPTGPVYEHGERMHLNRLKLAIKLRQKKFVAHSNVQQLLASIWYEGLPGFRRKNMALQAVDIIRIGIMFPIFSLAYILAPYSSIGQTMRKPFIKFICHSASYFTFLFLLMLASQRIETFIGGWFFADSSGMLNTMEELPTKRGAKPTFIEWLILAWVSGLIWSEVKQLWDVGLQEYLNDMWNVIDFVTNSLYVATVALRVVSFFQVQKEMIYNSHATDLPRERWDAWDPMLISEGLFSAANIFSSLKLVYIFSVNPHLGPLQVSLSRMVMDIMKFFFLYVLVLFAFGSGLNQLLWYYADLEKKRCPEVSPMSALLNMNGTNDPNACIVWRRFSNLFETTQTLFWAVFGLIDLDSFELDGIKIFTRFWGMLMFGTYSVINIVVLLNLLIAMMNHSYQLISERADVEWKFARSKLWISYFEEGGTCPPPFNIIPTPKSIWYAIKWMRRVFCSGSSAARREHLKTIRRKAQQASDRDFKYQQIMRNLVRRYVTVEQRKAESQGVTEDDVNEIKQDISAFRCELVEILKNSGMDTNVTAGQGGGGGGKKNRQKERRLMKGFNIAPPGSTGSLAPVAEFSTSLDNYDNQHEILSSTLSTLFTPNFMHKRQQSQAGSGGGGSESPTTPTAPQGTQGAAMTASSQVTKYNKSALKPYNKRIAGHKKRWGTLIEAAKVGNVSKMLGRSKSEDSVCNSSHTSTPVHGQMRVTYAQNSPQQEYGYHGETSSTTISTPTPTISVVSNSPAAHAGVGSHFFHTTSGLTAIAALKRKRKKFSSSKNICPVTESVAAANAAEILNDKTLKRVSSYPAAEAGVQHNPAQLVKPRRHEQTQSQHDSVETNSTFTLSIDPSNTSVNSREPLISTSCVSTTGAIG
In words: FLIPR calcium entry in TRPγ-expressing cells stimulated by eicosatetraynoic acid. The assay is classed as cell-based. Particulars: fluo-4-loaded cells, eicosatetraynoic acid (20 µM), FLIPR Tetra; read-out: IC50 to block Drosophila TRPγ. The method, then: as §1, §2

Assay [5] concerns TRPC3. Set-up: method as in PMID 9368034, PMID 10970899. Particulars: read-out: half-maximal concentration necessary for TRPC3 inhibition; cited from earlier work.
For assay [6], the target named is T1, TRPC6. Set-up: method as in PMID 9368034, PMID 10970899. Particulars: read-out: concentration needed to block TRPC6; cited from earlier work.

T2 sequence (Q9HBA0 whole entry, species assumed): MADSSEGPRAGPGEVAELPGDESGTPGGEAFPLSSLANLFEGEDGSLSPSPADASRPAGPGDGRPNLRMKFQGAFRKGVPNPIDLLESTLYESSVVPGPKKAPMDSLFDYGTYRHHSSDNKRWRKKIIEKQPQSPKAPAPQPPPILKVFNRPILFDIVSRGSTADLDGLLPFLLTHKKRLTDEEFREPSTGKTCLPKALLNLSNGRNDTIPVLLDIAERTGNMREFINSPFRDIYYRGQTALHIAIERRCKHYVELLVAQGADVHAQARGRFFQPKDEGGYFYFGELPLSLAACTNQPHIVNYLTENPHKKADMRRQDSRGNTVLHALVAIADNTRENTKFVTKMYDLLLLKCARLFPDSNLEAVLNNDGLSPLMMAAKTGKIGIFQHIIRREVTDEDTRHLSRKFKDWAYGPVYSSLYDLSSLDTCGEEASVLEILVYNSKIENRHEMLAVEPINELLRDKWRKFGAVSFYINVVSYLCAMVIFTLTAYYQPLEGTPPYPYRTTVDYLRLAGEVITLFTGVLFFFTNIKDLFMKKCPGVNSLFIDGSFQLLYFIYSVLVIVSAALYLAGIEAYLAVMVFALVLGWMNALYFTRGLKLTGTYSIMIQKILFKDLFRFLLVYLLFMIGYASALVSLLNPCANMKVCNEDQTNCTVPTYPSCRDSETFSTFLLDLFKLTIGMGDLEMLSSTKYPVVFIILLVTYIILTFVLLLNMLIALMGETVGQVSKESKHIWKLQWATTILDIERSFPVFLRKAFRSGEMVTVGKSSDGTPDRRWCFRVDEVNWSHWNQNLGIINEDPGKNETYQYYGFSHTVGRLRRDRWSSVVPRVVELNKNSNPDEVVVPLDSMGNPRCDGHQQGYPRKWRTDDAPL
T3 sequence (Q9HCF6 whole entry, species assumed): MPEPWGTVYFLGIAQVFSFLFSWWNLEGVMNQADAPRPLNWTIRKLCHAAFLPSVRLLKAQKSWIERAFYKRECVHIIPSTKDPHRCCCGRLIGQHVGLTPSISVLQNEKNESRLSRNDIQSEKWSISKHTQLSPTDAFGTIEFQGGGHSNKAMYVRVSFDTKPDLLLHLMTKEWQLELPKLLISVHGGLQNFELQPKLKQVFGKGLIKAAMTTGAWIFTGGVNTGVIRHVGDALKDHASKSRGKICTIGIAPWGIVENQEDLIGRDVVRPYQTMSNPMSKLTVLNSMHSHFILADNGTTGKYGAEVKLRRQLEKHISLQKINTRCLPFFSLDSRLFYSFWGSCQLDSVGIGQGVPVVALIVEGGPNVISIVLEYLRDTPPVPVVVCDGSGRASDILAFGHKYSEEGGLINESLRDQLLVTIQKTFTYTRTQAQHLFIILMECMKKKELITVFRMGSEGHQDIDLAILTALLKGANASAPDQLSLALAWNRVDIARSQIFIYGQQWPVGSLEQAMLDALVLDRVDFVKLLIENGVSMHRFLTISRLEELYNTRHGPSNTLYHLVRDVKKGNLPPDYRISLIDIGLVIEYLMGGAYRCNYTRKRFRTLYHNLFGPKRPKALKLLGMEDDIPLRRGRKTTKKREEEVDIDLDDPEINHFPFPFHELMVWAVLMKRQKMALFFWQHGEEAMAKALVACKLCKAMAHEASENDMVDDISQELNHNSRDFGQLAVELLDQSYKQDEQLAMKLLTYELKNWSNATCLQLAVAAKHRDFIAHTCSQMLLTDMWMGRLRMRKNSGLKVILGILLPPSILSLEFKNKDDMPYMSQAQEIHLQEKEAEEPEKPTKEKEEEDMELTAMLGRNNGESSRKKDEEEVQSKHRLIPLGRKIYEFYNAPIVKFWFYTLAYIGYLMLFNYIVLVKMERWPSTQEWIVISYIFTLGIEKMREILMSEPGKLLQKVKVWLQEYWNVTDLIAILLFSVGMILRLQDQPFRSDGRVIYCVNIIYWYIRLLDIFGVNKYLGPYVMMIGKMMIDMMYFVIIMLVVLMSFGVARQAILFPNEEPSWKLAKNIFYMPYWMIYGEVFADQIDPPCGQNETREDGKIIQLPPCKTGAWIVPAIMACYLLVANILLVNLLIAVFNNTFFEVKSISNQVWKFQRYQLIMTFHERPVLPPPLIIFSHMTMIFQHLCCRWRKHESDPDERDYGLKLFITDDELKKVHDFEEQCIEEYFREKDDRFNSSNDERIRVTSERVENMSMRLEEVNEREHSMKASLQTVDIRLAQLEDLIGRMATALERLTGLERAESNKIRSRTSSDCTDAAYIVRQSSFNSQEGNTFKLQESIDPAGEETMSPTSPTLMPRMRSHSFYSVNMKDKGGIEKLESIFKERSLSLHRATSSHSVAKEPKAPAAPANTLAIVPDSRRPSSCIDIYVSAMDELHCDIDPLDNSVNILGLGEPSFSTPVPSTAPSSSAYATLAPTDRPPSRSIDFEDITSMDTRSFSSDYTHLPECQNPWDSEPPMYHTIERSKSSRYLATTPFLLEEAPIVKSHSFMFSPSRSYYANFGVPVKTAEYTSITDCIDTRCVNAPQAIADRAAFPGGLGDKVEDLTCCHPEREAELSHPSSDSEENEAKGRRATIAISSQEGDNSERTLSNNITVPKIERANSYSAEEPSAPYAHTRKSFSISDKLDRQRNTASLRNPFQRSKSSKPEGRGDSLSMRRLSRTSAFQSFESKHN

For `NCCCCCCCCCCNS(=O)(=O)c1cccc2c(Cl)cccc12` [W-7 decyl], the IC50 on TRPC6 [1] was determined as 29 µM.
For `COc1ccc(CCCOC(Cn2ccnc2)c2ccc(OC)cc2)cc1.Cl` (stereo not drawn) [SKF-96365, 1-{β[3-(4-methoxyphenyl)propoxy]-4-methoxyphenethyl}-1H-imidazole hydrochloride], the IC50 in assay [2] is about 10 µM. The “block of endogenously expressed TRPC3” value in the assay with TRPC3 [3] is “effective in blocking”. In addition, on TRPC6 [4], the “block of heterologously expressed TRPC6” value is listed as “complete block”.
With `NCCCCCCNS(=O)(=O)c1cccc2c(Cl)cccc12` [W-7, N-(6-Aminohexyl)-5-chloro-1-naphthalenesulfonamide], the IC50 on TRPV4 turned out to be 65 µM; on TRPM3, 15 µM; on Drosophila TRPγ, 5 µM.
As for `NCCCCCCNS(=O)(=O)c1ccc2c(Cl)cccc2c1` [W-7 isomer, N-(6-Aminohexyl)-5-chloro-2-naphthalenesulfonamide], the IC50 at TRPC6 [1] is 35 µM.
Still for that read-out and setting: the value for `NCCCCCCNS(=O)(=O)c1cccc2ccccc12` [W-5, N-(6-Aminohexyl)-1-naphthalenesulfonamide] was 20 µM; that for `NCCCCCCCCNS(=O)(=O)c1cccc2c(I)cccc12` [J-8, (N-8-Aminooctyl)-5-iodo-1-naphthalenesulfonamide] was 85 µM.
Regarding `[Cl][La]([Cl])[Cl]` [lanthanum chloride], the IC50 with TRPC3 [5] is 4 µM; at TRPC6 [6], over 50 µM.
With `O=S(=O)(c1cccc2c(Cl)cccc12)N1CCCNCC1` [ML-9, 1-(5-Chloronaphthalene-1-sulfonyl)-1H-hexahydro-1,4-diazepine], the IC50 at TRPC6 [1] was 36 µM.
